Measured values published in article PMC4168790 (ACS Chemical Biology, 2014).

Columns and labels:
Sfp = molecular target: T1, Sfp (Bacillus subtilis, UniProt P39135); test: Isothermal titration calorimetry of CoA analogs binding to Sfp; parameters: species or system B. subtilis
T1 sequence (P39135 1-224): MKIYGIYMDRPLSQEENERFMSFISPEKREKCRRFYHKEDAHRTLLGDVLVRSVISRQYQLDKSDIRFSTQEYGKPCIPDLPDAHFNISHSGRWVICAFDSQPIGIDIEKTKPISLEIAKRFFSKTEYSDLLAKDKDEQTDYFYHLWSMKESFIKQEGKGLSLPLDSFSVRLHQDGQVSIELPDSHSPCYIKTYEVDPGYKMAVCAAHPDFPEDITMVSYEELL

PptT [1] = molecular target: T2, PptT (Mycobacterium tuberculosis, UniProt O33336); test: biochemical; format: binding, M. tuberculosis
T2 sequence (O33336 1-227): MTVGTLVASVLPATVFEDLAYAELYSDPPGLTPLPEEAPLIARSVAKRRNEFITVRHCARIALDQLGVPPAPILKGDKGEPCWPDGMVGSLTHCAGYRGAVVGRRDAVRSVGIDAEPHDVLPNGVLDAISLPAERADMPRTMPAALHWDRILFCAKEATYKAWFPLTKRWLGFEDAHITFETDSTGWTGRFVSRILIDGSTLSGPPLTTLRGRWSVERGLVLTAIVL

HsPPT = settings: cited from earlier work
PptT [2] = molecular target: T2, PptT; format: biochemical, M. tuberculosis; settings: MAS as target carrier protein (4 µM MAS, 2 µM rhodamine CoA), 250 nM PptT

CC(C)(COP(=O)(O)OP(=O)(O)OC[C@H]1O[C@@H](n2cnc3c(N)ncnc32)[C@H](O)[C@@H]1OP(=O)(O)O)[C@@H](O)C(=O)NCCC(=O)NCCS [CoA, coenzyme A]
Kd (Sfp): 3.4 ± 0.2 µM | enthalpy of binding (ΔH), Sfp (Sfp; ITC, 16°C): −12.5 ± 0.15 kcal mol^–1 | entropy of binding (TΔS), Sfp (Sfp; ITC, 16°C): −5.07 ± 0.38 kcal mol^–1 | Kd (PptT [1]): 0.036 ± 0.013 µM | enthalpy of binding (ΔH), PptT (PptT [1]; ITC, 16°C): −5.78 ± 0.08 kcal mol^–1 | entropy of binding (TΔS), PptT (PptT [1]; ITC, 16°C): 4.14 ± 0.16 kcal mol^–1

N=C1Sc2ccccc2C2=NCCCN12 [PD 404, 182]
inhibitory activity against HsPPT (HsPPT): no inhibitory activity

NC(N)=Nc1ccc2[nH]c3c(c2c1)C[C@@]1(O)[C@H]2Cc4ccc(O)c5c4[C@@]1(CCN2CC1CC1)[C@H]3O5.O=C(O)C(F)(F)F.O=C(O)C(F)(F)F [guanidinyl-naltrindole 2CF3COOH, guanidinyl-naltrindole]
inhibitory activity against HsPPT (HsPPT): no inhibitory activity

C[n+]1cc2c3c(ccc2c2ccc4cc5c(cc4c21)OCO5)OCO3 [sanguinarine Cl, sanguinarine chloride]
inhibitory activity against HsPPT (HsPPT): no inhibitory activity

CN=c1nc(-c2ccccc2)n(-c2ccccc2)s1 [SCH-202676]
inhibitory activity against HsPPT (HsPPT): no inhibitory activity

CN[C@@H](C)[C@H](O)c1ccccc1 [(−)-ephedrine hemisulfate, (−)-ephedrine]
IC50, PptT, MAS (PptT [2]): inactive

O=C1c2c(O)ccc(O)c2C(=O)c2c(NCCNCCO)ccc(NCCNCCO)c21 [mitoxantrone 2HCl, mitoxantrone]
IC50, PptT, MAS (PptT [2]): inactive

Clc1ccc(C(c2ccc(Cl)cc2)n2cc[n+](CC(OCc3ccc(Cl)cc3Cl)c3ccc(Cl)cc3Cl)c2)cc1 (stereo not shown) [calmidazolium Cl, calmidazolium chloride]
inhibitory activity against HsPPT (HsPPT): no inhibitory activity
